Data as given in PubChem BioAssay (NCI).
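Assay format: 96-well plates, 48-hour exposure. Here, GI50 denotes the concentration required for 50% inhibition of growth. The concentration for full growth arrest is given as TGI.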

Assays:
Experiment in all cases: NCI-60 cell line screen, 48 h; in the data active = GI50 below about 0.43 µM; inactive = the rest
OVCAR-4 ovarian = tested on: OVCAR-4 ovarian
SF-268 CNS = tested on: SF-268 CNS
MCF7 breast = tested on: MCF7 breast
K-562 leukemia = tested on: K-562 leukemia
SW-620 colon = tested on: SW-620 colon
BT-549 breast = tested on: BT-549 breast
TK-10 renal = tested on: TK-10 renal
U251 CNS = tested on: U251 CNS
HOP-92 NSCLC = tested on: HOP-92 NSCLC
COLO 205 colon = tested on: COLO 205 colon
SN12C renal = tested on: SN12C renal
LOX IMVI melanoma = tested on: LOX IMVI melanoma
UACC-257 melanoma = tested on: UACC-257 melanoma
ACHN renal = tested on: ACHN renal
HOP-62 NSCLC = tested on: HOP-62 NSCLC
A549 NSCLC = tested on: A549 NSCLC
HS 578T breast = tested on: HS 578T breast
MDA-MB-435 = tested on: MDA-MB-435
NCI-H522 lung = tested on: NCI-H522 lung
SK-MEL-5 melanoma = tested on: SK-MEL-5 melanoma
RPMI-8226 leukemia = tested on: RPMI-8226 leukemia
NCI-H23 lung = tested on: NCI-H23 lung
HCT-15 colon = tested on: HCT-15 colon
SR leukemia = tested on: SR leukemia
HL-60(TB) leukemia = tested on: HL-60(TB) leukemia
KM12 colon = tested on: KM12 colon
T-47D breast = tested on: T-47D breast
IGROV1 ovarian = tested on: IGROV1 ovarian
SF-539 CNS = tested on: SF-539 CNS
HCC-2998 colon = tested on: HCC-2998 colon
DU-145 prostate = tested on: DU-145 prostate
PC-3 prostate = tested on: PC-3 prostate
NCI-H226 lung = tested on: NCI-H226 lung
OVCAR-3 ovarian = tested on: OVCAR-3 ovarian
HT29 colon = tested on: HT29 colon
SK-OV-3 ovarian = tested on: SK-OV-3 ovarian
MOLT-4 leukemia = tested on: MOLT-4 leukemia
HCT-116 colon = tested on: HCT-116 colon
OVCAR-5 ovarian = tested on: OVCAR-5 ovarian
MDA-MB-231 breast = tested on: MDA-MB-231 breast
SNB-19 CNS = tested on: SNB-19 CNS
SNB-75 CNS = tested on: SNB-75 CNS
CAKI-1 renal = tested on: CAKI-1 renal
OVCAR-8 ovarian = tested on: OVCAR-8 ovarian
786-0 renal = tested on: 786-0 renal
NCI/ADR-RES ovarian = tested on: NCI/ADR-RES ovarian
A498 renal = tested on: A498 renal
NCI-H460 lung = tested on: NCI-H460 lung
SK-MEL-2 melanoma = tested on: SK-MEL-2 melanoma
M14 melanoma = tested on: M14 melanoma
SF-295 CNS = tested on: SF-295 CNS
MALME-3M melanoma = tested on: MALME-3M melanoma
UACC-62 melanoma = tested on: UACC-62 melanoma
RXF 393 renal = tested on: RXF 393 renal
UO-31 renal = tested on: UO-31 renal
CCRF-CEM leukemia = tested on: CCRF-CEM leukemia
SK-MEL-28 melanoma = tested on: SK-MEL-28 melanoma

COC(=O)[C@@H]1CCCN1C(=O)[C@@H]1CCCN1C(=O)[C@@H](Cc1c[nH]c2ccccc12)NC(=S)Nc1cc(C(F)(F)F)cc(C(F)(F)F)c1
5.52 µM: TGI (SK-MEL-5 melanoma)
5.89 µM: TGI (RXF 393 renal)
87.8 µM: TGI (TK-10 renal)
48.7 µM: TGI (IGROV1 ovarian)
24.7 µM: TGI (MALME-3M melanoma)
23.3 µM: TGI (HT29 colon)
9.5 µM: TGI (T-47D breast)
73 µM: TGI (OVCAR-5 ovarian)
35.3 µM: TGI (UACC-257 melanoma)
24.9 µM: TGI (PC-3 prostate)
4.38 µM: TGI (LOX IMVI melanoma)
9.05 µM: TGI (HCC-2998 colon)
6.8 µM: TGI (MDA-MB-435)
6.44 µM: TGI (SR leukemia)
20.4 µM: TGI (UACC-62 melanoma)
21.1 µM: TGI (M14 melanoma)
98.2 µM: TGI (A498 renal)
10.8 µM: TGI (MDA-MB-231 breast)
5.5 µM: TGI (COLO 205 colon)
> 100 µM: TGI (OVCAR-4 ovarian) | TGI (SF-268 CNS) | TGI (MCF7 breast) | TGI (K-562 leukemia) | TGI (SW-620 colon) | TGI (SN12C renal) | TGI (ACHN renal) | TGI (HOP-62 NSCLC) | TGI (A549 NSCLC) | TGI (HS 578T breast) | TGI (RPMI-8226 leukemia) | TGI (NCI-H23 lung) | TGI (HCT-15 colon) | TGI (HL-60(TB) leukemia) | TGI (KM12 colon) | TGI (DU-145 prostate) | TGI (NCI-H226 lung) | TGI (SK-OV-3 ovarian) | TGI (MOLT-4 leukemia) | TGI (HCT-116 colon) | TGI (SNB-19 CNS) | TGI (SNB-75 CNS) | TGI (CAKI-1 renal) | TGI (OVCAR-8 ovarian) | TGI (NCI/ADR-RES ovarian) | TGI (NCI-H460 lung) | TGI (SF-295 CNS) | TGI (UO-31 renal) | TGI (CCRF-CEM leukemia)
52.2 µM: TGI (OVCAR-3 ovarian)
5.26 µM: TGI (HOP-92 NSCLC)
inactive: GI50 (OVCAR-4 ovarian) 4.32 µM | GI50 (SF-268 CNS) 6.44 µM | GI50 (MCF7 breast) 2.61 µM | GI50 (K-562 leukemia) 3.98 µM | GI50 (SW-620 colon) 4.34 µM | GI50 (BT-549 breast) 4.75 µM | GI50 (TK-10 renal) 10.9 µM | GI50 (U251 CNS) 4.31 µM | GI50 (HOP-92 NSCLC) 1.46 µM | GI50 (COLO 205 colon) 2.41 µM | GI50 (SN12C renal) 6.81 µM | GI50 (LOX IMVI melanoma) 1.89 µM | GI50 (UACC-257 melanoma) 4.06 µM | GI50 (ACHN renal) 4.28 µM | GI50 (HOP-62 NSCLC) 8.35 µM | GI50 (A549 NSCLC) 5.31 µM | GI50 (HS 578T breast) 7.81 µM | GI50 (MDA-MB-435) 2.44 µM | GI50 (NCI-H522 lung) 3.98 µM | GI50 (SK-MEL-5 melanoma) 2.13 µM | GI50 (RPMI-8226 leukemia) 3.34 µM | GI50 (NCI-H23 lung) 6.35 µM | GI50 (HCT-15 colon) 4.87 µM | GI50 (SR leukemia) 2.39 µM | GI50 (HL-60(TB) leukemia) 4.26 µM | GI50 (KM12 colon) 5.45 µM | GI50 (T-47D breast) 2.91 µM | GI50 (IGROV1 ovarian) 3.91 µM | GI50 (SF-539 CNS) 7.72 µM | GI50 (HCC-2998 colon) 2.9 µM | GI50 (DU-145 prostate) 14.6 µM | GI50 (PC-3 prostate) 2.95 µM | GI50 (NCI-H226 lung) 7.74 µM | GI50 (OVCAR-3 ovarian) 3.8 µM | GI50 (HT29 colon) 3.68 µM | GI50 (SK-OV-3 ovarian) 47.2 µM | GI50 (MOLT-4 leukemia) 3.16 µM | GI50 (HCT-116 colon) 4.03 µM | GI50 (OVCAR-5 ovarian) 15 µM | GI50 (MDA-MB-231 breast) 3.01 µM | GI50 (SNB-19 CNS) 16.2 µM | GI50 (SNB-75 CNS) 1.91 µM | GI50 (CAKI-1 renal) 16.9 µM | GI50 (OVCAR-8 ovarian) 5.83 µM | GI50 (786-0 renal) 5.95 µM | GI50 (NCI/ADR-RES ovarian) > 100 µM | GI50 (A498 renal) 11.1 µM | GI50 (NCI-H460 lung) 4.77 µM | GI50 (SK-MEL-2 melanoma) 2.49 µM | GI50 (M14 melanoma) 4.68 µM | GI50 (SF-295 CNS) 6.48 µM | GI50 (MALME-3M melanoma) 5.17 µM | GI50 (UACC-62 melanoma) 3.68 µM | GI50 (RXF 393 renal) 2.14 µM | GI50 (UO-31 renal) 5.44 µM | GI50 (CCRF-CEM leukemia) 3.39 µM | GI50 (SK-MEL-28 melanoma) 1.95 µM
67.4 µM: TGI (SF-539 CNS)
28.6 µM: TGI (BT-549 breast)
95.3 µM: TGI (U251 CNS)
5.11 µM: TGI (SK-MEL-2 melanoma)
20.1 µM: TGI (786-0 renal)
26.5 µM: TGI (NCI-H522 lung)
4.54 µM: TGI (SK-MEL-28 melanoma)
